# Measured values published in patent US9161944B2, “Method for preventing cancer metastasis” (INSERM (INSTITUT NATIONAL DE LA SANTE ET DE LA SANTE ET DE …, priority 2010, dated 2015).
# Legend:
# MCF-10A = test: Viability (MTT) of non cancerous cells; format: cell-based, human; details: FIG. 6D
# Description: FIG. 6: JPH1701 (or Ohmline) activity on cell motility on cancerous MDA-MB-435s cells and on non cancerous MCF-10A cells. The motility was tested by transwell assay. Additionally, viability tests were performed using MTT assays. FIG. 6A-B) JPH1701 (the concentrations of JPH1701, for the FIG. 6A, are 0 (control condition), 10 nM, 100 nM, 300 nM and 1 μM) reduces motility (FIG. 6A) of MDA-MB-435s wild type (WT) cells from 10 nM without affecting viability (FIG. 6B) except at 10 μM. FIG. 6C-D) MCF-10A motility (FIG. 6C) and viability (FIG. 6D) are not affected by JPH1701 (the concentrations of JPH1701, for the FIG. 6C, are 0 (control condition), 10 nM, 100 nM, 300 nM and 1 μM). FIG. 6E-F) Effect on SK3 dependent motility.
# The immortalized normal mammary epithelial cell lines MCF-10A and 184A1 were cultured in DMEM/Ham's F-12, 1:1 mix containing 5% horse serum (Invitrogen Life Technologies, France), insulin (10 μg/ml), epidermal growth factor (20 ng/ml), hydrocortisone (0.5 μg/ml) and, respectively for MCF-10A and 184A1, 100 ng/ml cholera toxin and 1 ng/ml cholera toxin plus 5 μg/ml transferrin.
# SKCa channel = test: 125I-apamin binding, membrane homogenates of cerebral cortex; details: 0.3 and 2 μM, FIG. 8E
# Description: FIG. 8: Effect of JPH1701 on SK3 channel activity. […] Results are expressed as the mean±S.E.M. FIG. 8C) Histograms showing the effect of racemic hexadecyloxy-2-O-methyl-sn-glycerol-lactose (JPH 1701 or Ohmline, i.e: JPH1701 in the example) mixture and of both enantiomers (R-JPH1701 and S-JPH1701) on SK3 activity. The percentages of inhibition represent the ratio (SK3 current amplitude and chord conductance (in the presence of 10 μM JPH1701)/SK3 current amplitude in control experiments). Black bars show current at 0 mV and grey bars indicate the chord conductance. FIG. 8D) Dose-response effect of the form + of JPH1701 (concentrations: 0 (control), 0.3, 1 and 10 μM). Columns, mean, bars, SEM, (5 cells for racemic mix and 4 cells for + and − forms). FIG. 8E) Histogram showing the % of control specific binding of ^125I-Apamin ([…]) to SKCa channel obtained from membrane homogenates of cerebral cortex by 0.3 and 2 μM JPH1701.
# To investigate whether JPH1701 interacts with the apamin binding site, 125I-apamin binding studies were performed.
substance,measurement,setting,value
hexadecyloxy-2-O-methyl-sn-glycerol-lactose [JPH1701],Effect on cell viability of non-cancerous cells,MCF-10A,did not affected
same,Inhibition of 125I-apamin binding,SKCa channel,does not inhibit
